Data as given in patent US12139520B2 (priority 2020, dated 2024).
Bridge positions count the residues as written; N and C are the ends. Square brackets hold non-standard residues; d marks the D form. Peptide text beside a SMILES is read from it. Hyp = O=C(O)[C@@H]1C[C@@H](O)CN1

Legend:
hAMY3 receptor = molecular target: T1, hAMY3 receptor (Homo sapiens, UniProt O60896+P30988); assay: cAMP assay for in vitro receptor activation, hAMY3-R; type: cell-based; settings: cAMP assay, hAMY3 receptor; read-out: hAMY3R EC50
T1 sequence (P30988 25-474): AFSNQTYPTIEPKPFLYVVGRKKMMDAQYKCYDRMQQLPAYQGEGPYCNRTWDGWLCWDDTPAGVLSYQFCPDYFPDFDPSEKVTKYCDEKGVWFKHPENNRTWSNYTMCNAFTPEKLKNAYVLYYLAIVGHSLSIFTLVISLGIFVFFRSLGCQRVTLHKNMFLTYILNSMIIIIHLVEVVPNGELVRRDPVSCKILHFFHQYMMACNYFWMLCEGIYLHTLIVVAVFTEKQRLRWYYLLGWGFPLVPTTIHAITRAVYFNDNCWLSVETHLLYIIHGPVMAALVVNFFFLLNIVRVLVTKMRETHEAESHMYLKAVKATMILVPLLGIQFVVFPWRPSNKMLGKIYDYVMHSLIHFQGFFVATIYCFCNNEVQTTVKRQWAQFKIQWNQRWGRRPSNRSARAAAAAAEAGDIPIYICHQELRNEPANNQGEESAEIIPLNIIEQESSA
T1 sequence (O60896 24-148 partner): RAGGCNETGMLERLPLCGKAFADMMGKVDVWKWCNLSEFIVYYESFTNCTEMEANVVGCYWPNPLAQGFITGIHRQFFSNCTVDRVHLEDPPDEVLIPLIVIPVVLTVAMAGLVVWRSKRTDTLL
Summary of the method: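 Monoclonal cell line stably overexpressing hAMY3 receptor, plated in DPBS with 0.05% casein and 0.5 mM IBMX, was stimulated with graded compound doses for 30 min at room temperature. cAMP accumulation was read by time-resolved FRET one hour after adding detection reagents.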

[1] = Physical stability of peptide analogues (Thioflavin T fibrillation); type: physicochemical; settings: maximum ThT signal normalized between hAMY maximum and buffer background; 40° C., shaking, four days; pH 7 per table title
Summary of the method: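 Peptides in 50 mM sodium acetate pH 4 or 50 mM sodium phosphate pH 7 were preincubated 1 h, mixed with 4 μM ThT, held at 40° C with 700 rpm shaking before each read. Fluorescence (ex 450/em 480 nm) every 10 min for four days; LOESS-smoothed maximum signal normalized in percent between hAMY and buffer.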

Compound	EC50 (hAMY3 receptor) [nM]	Max ThT signal (%) [1] [%]
CC[C@H](C)[C@H](NC(=O)[C@H](CCC(N)=O)NC(=O)[C@H](Cc1c[nH]cn1)NC(=O)[C@H](C)NC(=O)[C@H](CC(C)C)NC(=O)[C@H](CCCNC(=N)N)NC(=O)[C@H](CCC(N)=O)NC(=O)[C@@H](NC(=O)[C@@H](NC(=O)[C@@H]1CSSC[C@H](NC(=O)CN)C(=O)N[C@@H](CCCNC(=N)N)C(=O)N[C@@H]([C@@H](C)O)C(=O)NCC(=O)N[C@@H]([C@@H](C)O)C(=O)N1)[C@@H](C)O)C(C)C)C(=O)N[C@@H](Cc1ccc(O)cc1)C(=O)N[C@@H](CCC(N)=O)C(=O)N[C@@H](Cc1ccccc1)C(=O)N[C@H](C(=O)N[C@@H](CC(=O)O)C(=O)N[C@@H](CCCCN)C(=O)N[C@@H](CC(=O)O)C(=O)N[C@@H](CCCCN)C(=O)N[C@@H](CC(=O)O)C(=O)N[C@@H](CC(N)=O)C(=O)N[C@H](C(=O)N[C@@H](C)C(=O)N1CCC[C@H]1C(=O)N[C@@H](CCCNC(=N)N)C(=O)N[C@@H](CO)C(=O)N[C@@H](CCCCN)C(=O)N[C@H](C(=O)NCC(=O)N1CCC[C@H]1C(=O)N[C@@H](CCC(N)=O)C(=O)NCC(=O)N[C@@H](Cc1ccc(O)cc1)C(N)=O)C(C)C)C(C)C)[C@@H](C)O [compound 129] (H-GCRTGTCTVQRLAHQIYQFTDKDKDNVAPRSKVGPQGY-NH2; disulfide 2-7)	0.029	1.400
CC[C@H](C)[C@H](NC(=O)[C@H](CCC(N)=O)NC(=O)[C@H](Cc1c[nH]cn1)NC(=O)[C@H](C)NC(=O)[C@H](CC(C)C)NC(=O)[C@H](CCCNC(=N)N)NC(=O)[C@H](CCC(N)=O)NC(=O)[C@@H](NC(=O)[C@@H](NC(=O)[C@@H]1CSSC[C@H](NC(=O)CN)C(=O)N[C@@H](CCCNC(=N)N)C(=O)N[C@@H](Cc2ccccc2)C(=O)NCC(=O)N[C@@H]([C@@H](C)O)C(=O)N1)[C@@H](C)O)C(C)C)C(=O)N[C@@H](Cc1ccc(O)cc1)C(=O)N[C@@H](CCC(N)=O)C(=O)N[C@@H](Cc1ccccc1)C(=O)N[C@H](C(=O)N[C@@H](CC(=O)O)C(=O)N[C@@H](CCCCN)C(=O)N[C@@H](CC(=O)O)C(=O)N[C@@H](CCCCN)C(=O)N[C@@H](CC(=O)O)C(=O)N[C@@H](CC(N)=O)C(=O)N[C@H](C(=O)N[C@@H](C)C(=O)N1CCC[C@H]1C(=O)N[C@@H](CCCNC(=N)N)C(=O)N[C@@H](CO)C(=O)N[C@@H](CC(N)=O)C(=O)N[C@H](C(=O)N[C@@H](CO)C(=O)N1CCC[C@H]1C(=O)N[C@@H](CCC(N)=O)C(=O)NCC(=O)N[C@@H](Cc1ccc(O)cc1)C(N)=O)C(C)C)C(C)C)[C@@H](C)O [compound 131] (H-GCRFGTCTVQRLAHQIYQFTDKDKDNVAPRSNVSPQGY-NH2; disulfide 2-7)	0.031	6.800
CC[C@H](C)[C@H](NC(=O)[C@H](CCC(N)=O)NC(=O)[C@H](Cc1c[nH]cn1)NC(=O)[C@H](C)NC(=O)[C@H](CC(C)C)NC(=O)[C@H](CCCNC(=N)N)NC(=O)[C@H](CCC(N)=O)NC(=O)[C@@H](NC(=O)[C@@H](NC(=O)[C@@H]1CSSC[C@H](NC(=O)CN)C(=O)N[C@@H](CCCNC(=N)N)C(=O)N[C@@H](Cc2ccccc2)C(=O)NCC(=O)N[C@@H]([C@@H](C)O)C(=O)N1)[C@@H](C)O)C(C)C)C(=O)N[C@@H](Cc1ccc(O)cc1)C(=O)N[C@@H](CCC(N)=O)C(=O)N[C@@H](Cc1ccccc1)C(=O)N[C@H](C(=O)N[C@@H](CC(=O)O)C(=O)N[C@@H](CCCCN)C(=O)N[C@@H](CC(=O)O)C(=O)N[C@@H](CCCCN)C(=O)N[C@@H](CC(=O)O)C(=O)N[C@@H](CC(N)=O)C(=O)N[C@H](C(=O)N[C@@H](C)C(=O)N1CCC[C@H]1C(=O)N[C@@H](CCCNC(=N)N)C(=O)N[C@H](C(=O)N[C@@H](CCCCN)C(=O)N[C@H](C(=O)N[C@@H](CO)C(=O)N1CCC[C@H]1C(=O)N[C@@H](CCC(N)=O)C(=O)NCC(=O)N1C[C@H](O)C[C@H]1C(N)=O)C(C)C)[C@@H](C)O)C(C)C)[C@@H](C)O [compound 132] (H-GCRFGTCTVQRLAHQIYQFTDKDKDNVAPRTKVSPQG[Hyp]-NH2; disulfide 2-7; N-terminus assumed)	0.031	5.200
CC[C@H](C)[C@H](NC(=O)[C@H](CCC(N)=O)NC(=O)[C@H](Cc1c[nH]cn1)NC(=O)[C@H](C)NC(=O)[C@H](CC(C)C)NC(=O)[C@H](CCCNC(=N)N)NC(=O)[C@H](CCC(N)=O)NC(=O)[C@@H](NC(=O)[C@@H](NC(=O)[C@@H]1CSSC[C@H](NC(=O)CN)C(=O)N[C@@H](CCCNC(=N)N)C(=O)N[C@@H](Cc2ccccc2)C(=O)NCC(=O)N[C@@H]([C@@H](C)O)C(=O)N1)[C@@H](C)O)C(C)C)C(=O)N[C@@H](Cc1ccc(O)cc1)C(=O)N[C@@H](CCC(N)=O)C(=O)N[C@@H](Cc1ccccc1)C(=O)N[C@H](C(=O)N[C@@H](CC(=O)O)C(=O)N[C@@H](CCCCN)C(=O)N[C@@H](CC(=O)O)C(=O)N[C@@H](CCCCN)C(=O)N[C@@H](CC(=O)O)C(=O)N[C@@H](CC(N)=O)C(=O)N[C@H](C(=O)N[C@@H](C)C(=O)N1CCC[C@H]1C(=O)N[C@@H](CCCNC(=N)N)C(=O)N[C@H](C(=O)N[C@@H](CCCCN)C(=O)N[C@H](C(=O)N[C@@H](CO)C(=O)N1CCC[C@H]1C(=O)N[C@@H](CC(N)=O)C(=O)NCC(=O)N1C[C@H](O)C[C@H]1C(N)=O)C(C)C)[C@@H](C)O)C(C)C)[C@@H](C)O [compound 134] (H-GCRFGTCTVQRLAHQIYQFTDKDKDNVAPRTKVSPNG[Hyp]-NH2; disulfide 2-7; N-terminus assumed)	0.032	17.400
CC[C@H](C)[C@H](NC(=O)[C@H](CCC(N)=O)NC(=O)[C@H](Cc1c[nH]cn1)NC(=O)[C@H](C)NC(=O)[C@H](CC(C)C)NC(=O)[C@H](CCCNC(=N)N)NC(=O)[C@H](CCC(N)=O)NC(=O)[C@@H](NC(=O)[C@@H](NC(=O)[C@@H]1CSSC[C@H](NC(=O)CN)C(=O)N[C@@H](CCCNC(=N)N)C(=O)N[C@@H](Cc2ccccc2)C(=O)NCC(=O)N[C@@H]([C@@H](C)O)C(=O)N1)[C@@H](C)O)C(C)C)C(=O)N[C@@H](Cc1ccc(O)cc1)C(=O)N[C@@H](CCC(N)=O)C(=O)N[C@@H](Cc1ccccc1)C(=O)N[C@H](C(=O)N[C@@H](CC(=O)O)C(=O)N[C@@H](CCCCN)C(=O)N[C@@H](CC(=O)O)C(=O)N[C@@H](CCCCN)C(=O)N[C@@H](CC(=O)O)C(=O)N[C@@H](CC(N)=O)C(=O)N[C@H](C(=O)N[C@@H](C)C(=O)N1CCC[C@H]1C(=O)N[C@@H](CCCNC(=N)N)C(=O)N[C@@H](CO)C(=O)N[C@@H](CC(N)=O)C(=O)N[C@H](C(=O)NCC(=O)N1CCC[C@H]1C(=O)N[C@@H](CCC(N)=O)C(=O)NCC(=O)N1C[C@H](O)C[C@H]1C(N)=O)C(C)C)C(C)C)[C@@H](C)O [compound 135] (H-GCRFGTCTVQRLAHQIYQFTDKDKDNVAPRSNVGPQG[Hyp]-NH2; disulfide 2-7; N-terminus assumed)	0.033	3.300
CC[C@H](C)[C@H](NC(=O)[C@H](CCC(N)=O)NC(=O)[C@H](Cc1c[nH]cn1)NC(=O)[C@H](C)NC(=O)[C@H](CC(C)C)NC(=O)[C@H](CCCNC(=N)N)NC(=O)[C@H](CCC(N)=O)NC(=O)[C@@H](NC(=O)[C@@H](NC(=O)[C@@H]1CSSC[C@H](NC(=O)CN)C(=O)N[C@@H](CCCNC(=N)N)C(=O)N[C@@H]([C@@H](C)O)C(=O)NCC(=O)N[C@@H]([C@@H](C)O)C(=O)N1)[C@@H](C)O)C(C)C)C(=O)N[C@@H](Cc1ccc(O)cc1)C(=O)N[C@@H](CCC(N)=O)C(=O)N[C@@H](Cc1ccccc1)C(=O)N[C@H](C(=O)N[C@@H](CC(=O)O)C(=O)N[C@@H](CCCCN)C(=O)N[C@@H](CC(=O)O)C(=O)N[C@@H](CCCCN)C(=O)N[C@@H](CC(=O)O)C(=O)N[C@@H](CC(N)=O)C(=O)N[C@H](C(=O)N[C@@H](C)C(=O)N1CCC[C@H]1C(=O)N[C@@H](CCCNC(=N)N)C(=O)N[C@@H](CO)C(=O)N[C@@H](CC(N)=O)C(=O)N[C@H](C(=O)NCC(=O)N1CCC[C@H]1C(=O)N[C@@H](CCC(N)=O)C(=O)NCC(=O)N[C@@H](Cc1ccc(O)cc1)C(N)=O)C(C)C)C(C)C)[C@@H](C)O [compound 138] (H-GCRTGTCTVQRLAHQIYQFTDKDKDNVAPRSNVGPQGY-NH2; disulfide 2-7; N-terminus assumed)	0.035	6.800
